Here are results for 37 compounds from ChEMBL document CHEMBL1201862, “PubChem BioAssay data set” (2004).

Among the targets are Cytochrome P450 2D6 (Homo sapiens, UniProt P10635); Cytochrome P450 2C9 (Homo sapiens, UniProt P11712); Cytochrome P450 3A4 (Homo sapiens, UniProt P08684).
The target of another assay is T1, Cytochrome P450 1A2 (Homo sapiens, UniProt P05177).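 Also: PubChem cytochrome P450 panel assay, CYP1A2 panel member.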
T1 sequence (P05177 whole entry): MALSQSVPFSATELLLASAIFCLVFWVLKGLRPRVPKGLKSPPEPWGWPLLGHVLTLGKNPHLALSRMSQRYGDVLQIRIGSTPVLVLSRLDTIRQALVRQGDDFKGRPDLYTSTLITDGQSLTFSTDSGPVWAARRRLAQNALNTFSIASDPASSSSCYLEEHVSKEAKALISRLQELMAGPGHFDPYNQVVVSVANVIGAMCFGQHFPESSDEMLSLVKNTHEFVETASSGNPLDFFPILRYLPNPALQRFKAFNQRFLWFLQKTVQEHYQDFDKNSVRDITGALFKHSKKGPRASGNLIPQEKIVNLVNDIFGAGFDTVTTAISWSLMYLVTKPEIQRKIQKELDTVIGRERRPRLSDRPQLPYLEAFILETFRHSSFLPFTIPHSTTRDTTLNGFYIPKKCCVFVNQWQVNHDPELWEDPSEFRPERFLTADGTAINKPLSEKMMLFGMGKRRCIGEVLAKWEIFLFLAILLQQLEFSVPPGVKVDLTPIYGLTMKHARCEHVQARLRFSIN

The nature of assay [1]: inhibitors of firefly luciferase expression or activity, dose response, H4 neuroglioma cells, luminescence (AID 1990). It counts as functional, cell-based.
Assay [2] is described as follows: Luminescence Cell-Based Dose Response HTS to Identify Inhibitors of 5'UTR Stem-Loop Driven Prion Protein mRNA Translation in H4 Neuroglioblastoma Cells. [Related pubchem assays: 1827 (Project Summary), 1813 (Primary HTS)]. It counts as functional.
For assay [3], the target named is T2, Heat shock factor protein 1 (Mus musculus, UniProt P38532).
T2 sequence (P38532 whole entry): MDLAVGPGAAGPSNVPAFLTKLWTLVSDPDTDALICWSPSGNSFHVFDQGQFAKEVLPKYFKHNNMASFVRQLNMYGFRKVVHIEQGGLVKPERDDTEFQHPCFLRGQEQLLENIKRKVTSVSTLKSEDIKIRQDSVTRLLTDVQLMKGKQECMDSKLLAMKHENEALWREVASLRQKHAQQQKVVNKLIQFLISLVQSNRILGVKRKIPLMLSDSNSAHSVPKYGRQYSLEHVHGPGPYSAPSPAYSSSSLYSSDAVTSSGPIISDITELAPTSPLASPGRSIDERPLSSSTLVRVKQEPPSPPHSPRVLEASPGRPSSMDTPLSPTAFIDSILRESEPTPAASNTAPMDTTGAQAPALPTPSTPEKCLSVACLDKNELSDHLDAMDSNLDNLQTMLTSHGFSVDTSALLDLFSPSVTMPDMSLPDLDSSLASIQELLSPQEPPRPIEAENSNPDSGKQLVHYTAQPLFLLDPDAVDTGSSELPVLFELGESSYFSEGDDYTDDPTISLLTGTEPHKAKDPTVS
Kind of assay: inhibition of MG132-induced HSE-luciferase signal, confirmation, cell-based, NIH3T3, luminescence, dose retest (AID 2382).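 Also: NIH3T3 fibroblasts with HSF1-driven luciferase reporter stressed by proteasome inhibitor MG132; luminescence from HSF1-driven luciferase expression after 8 hours of MG132 stress.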 It counts as functional.

The nature of assay [4]: inhibitors of SNCA 5'UTR-driven reporter translation, confirmation, H4 neuroglioma cells, luminescence (AID 1988). It counts as functional, cell-based.
Assay [5] can be described thus: Luminescence Cell-Based Dose Confirmation HTS to Identify Activators of 5'UTR Stem-Loop Driven Alpha-Synuclein mRNA Translation in H4 Neuroglioblastoma Cells. [Related pubchem assays: 1829 (Project Summary), 1814 (Primary HTS)]. It counts as functional.
Assay [6] is described as follows: Luminescence Cell-Based Dose Response HTS to Identify Activators of Luciferase Translation or Activity in H4 […] Cells. [Related pubchem assays: 1829 (Project Summary), 1814 (Primary HTS)]. It counts as functional.
The test system of the next assay is H4. Kind of assay: Luminescence Cell-Based Dose Response HTS to Identify Activators of 5'UTR Stem-Loop Driven Prion Protein mRNA Translation in H4 Neuroglioblastoma Cells. [Related pubchem assays: 1829 (Project Summary), 1814 (Primary HTS)]. It counts as functional. Particulars: Homo sapiens.
Assay [7] can be described thus: inhibitors of intracellular T. cruzi replication, confirmation, NIH3T3 host cells, beta-gal luminescence (AID 2044).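 Also: intracellular parasites grown in NIH/3T3 mouse fibroblasts as host cells; luminescent beta-galactosidase reporter signal from transgenic T. cruzi replicating inside host cells; inhibitors lower the luminescence signal.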 It counts as functional, cell-based.
A short description of assay [8]: cytotoxicity toward NIH3T3 fibroblasts, dose response, counter-screen, cell-based, ATP luminescence, mouse fibroblasts (AID 2010).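 Also: cells exposed to compound for about 90 hours before reading.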 It counts as functional. On the technique in general: The purpose of a counterscreen is to sort out artefacts and off-target activity.
The target in the next assay is Cytochrome P450 2C19 (Homo sapiens, UniProt P33261). The assay is described as follows: Cytochrome panel assay with activity outcomes. Panel member name: p450-cyp2c19 Compounds with AC50 equal or less than 10 uM are considered active. It counts as functional. The settings on record: read-out: AC50.
Cytochrome P450 2C19, sequence (P33261 whole entry): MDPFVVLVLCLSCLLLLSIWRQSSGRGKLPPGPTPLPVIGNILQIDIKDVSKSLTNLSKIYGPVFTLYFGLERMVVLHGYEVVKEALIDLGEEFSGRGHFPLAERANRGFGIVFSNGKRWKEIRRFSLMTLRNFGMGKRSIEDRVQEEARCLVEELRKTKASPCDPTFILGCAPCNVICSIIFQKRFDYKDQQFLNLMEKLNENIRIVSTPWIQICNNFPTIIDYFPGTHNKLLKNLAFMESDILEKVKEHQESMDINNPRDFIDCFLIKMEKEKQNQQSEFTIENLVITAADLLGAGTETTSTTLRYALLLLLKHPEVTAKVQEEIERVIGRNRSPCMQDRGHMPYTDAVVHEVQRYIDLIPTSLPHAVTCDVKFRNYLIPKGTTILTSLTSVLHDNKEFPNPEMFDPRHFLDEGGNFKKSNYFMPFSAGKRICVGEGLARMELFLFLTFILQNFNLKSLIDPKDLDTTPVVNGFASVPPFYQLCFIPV

The source made the active and inactive calls.

Cytochrome P450 2D6, sequence (P10635 whole entry): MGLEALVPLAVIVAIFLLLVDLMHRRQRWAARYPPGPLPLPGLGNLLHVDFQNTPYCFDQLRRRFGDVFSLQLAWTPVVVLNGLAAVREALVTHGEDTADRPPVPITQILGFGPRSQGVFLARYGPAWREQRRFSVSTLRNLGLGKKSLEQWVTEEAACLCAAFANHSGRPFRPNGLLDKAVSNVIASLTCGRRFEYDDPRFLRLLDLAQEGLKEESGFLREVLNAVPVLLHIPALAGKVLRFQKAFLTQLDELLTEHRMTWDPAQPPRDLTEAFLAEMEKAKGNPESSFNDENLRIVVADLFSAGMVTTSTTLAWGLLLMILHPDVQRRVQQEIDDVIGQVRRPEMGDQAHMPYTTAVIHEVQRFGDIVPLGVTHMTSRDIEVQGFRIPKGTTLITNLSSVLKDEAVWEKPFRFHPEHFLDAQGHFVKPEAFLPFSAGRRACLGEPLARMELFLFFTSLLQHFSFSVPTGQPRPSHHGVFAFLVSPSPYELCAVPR
Cytochrome P450 3A4, sequence (P08684 whole entry): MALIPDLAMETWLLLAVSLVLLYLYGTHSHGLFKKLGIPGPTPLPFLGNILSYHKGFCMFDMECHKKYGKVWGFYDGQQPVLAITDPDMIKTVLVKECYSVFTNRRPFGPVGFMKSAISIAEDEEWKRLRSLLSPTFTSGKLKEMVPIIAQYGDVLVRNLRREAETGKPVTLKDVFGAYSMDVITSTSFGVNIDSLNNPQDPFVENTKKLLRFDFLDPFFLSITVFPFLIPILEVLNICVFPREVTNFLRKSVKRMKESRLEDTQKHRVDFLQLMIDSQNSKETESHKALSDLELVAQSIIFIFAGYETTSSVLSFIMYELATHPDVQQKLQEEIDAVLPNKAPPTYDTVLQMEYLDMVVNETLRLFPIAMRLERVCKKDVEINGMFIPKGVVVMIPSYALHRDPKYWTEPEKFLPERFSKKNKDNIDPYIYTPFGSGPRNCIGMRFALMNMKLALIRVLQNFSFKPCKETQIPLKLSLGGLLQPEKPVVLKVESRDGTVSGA
Cytochrome P450 2C9, sequence (P11712 whole entry): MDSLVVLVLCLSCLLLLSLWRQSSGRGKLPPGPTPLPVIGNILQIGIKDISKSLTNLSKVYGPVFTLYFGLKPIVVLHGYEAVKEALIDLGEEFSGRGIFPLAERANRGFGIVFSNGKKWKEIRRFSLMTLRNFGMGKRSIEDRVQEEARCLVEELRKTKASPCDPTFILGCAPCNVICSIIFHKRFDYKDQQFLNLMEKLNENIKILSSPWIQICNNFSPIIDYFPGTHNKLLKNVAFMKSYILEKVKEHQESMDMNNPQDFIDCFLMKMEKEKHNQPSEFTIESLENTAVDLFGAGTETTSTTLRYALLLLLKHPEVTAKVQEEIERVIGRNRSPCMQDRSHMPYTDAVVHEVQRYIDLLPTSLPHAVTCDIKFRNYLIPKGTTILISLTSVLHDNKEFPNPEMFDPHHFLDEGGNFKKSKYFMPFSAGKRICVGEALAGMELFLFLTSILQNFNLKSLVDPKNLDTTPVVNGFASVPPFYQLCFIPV

By AC50 is commonly meant the concentration giving half of the maximal activity seen. In the case of `COCCn1c(=O)c(-c2cccc(C#N)c2)nc2cnc(Nc3ccccc3)nc21`, the AC50 at Cytochrome P450 2D6 and on Cytochrome P450 1A2 was 2.51 µM (inconclusive) each time.
A word on the EC50: it is the concentration at which the effect is half-maximal. As for `c1ccc(Oc2cccc(OCCn3cncn3)c2)cc1`, the EC50 in [1] is given as > 120 µM (not active); in assay [2], > 120 µM (not active); in assay [3], > 195 µM (not active); in [4] it was > 120 µM (not active).
In the case of `COc1cccc(Nc2ncc3nc(-c4ccc(F)cc4)c(=O)n(C)c3n2)c1`, the AC50 on Cytochrome P450 1A2 is 3.16 µM (inconclusive).
As to `COc1ccc2nc(C)cc(SCC(=O)NNC(=O)COc3ccc(C)cc3)c2c1`, the AC50 at Cytochrome P450 2D6 was 2 µM (inconclusive); on Cytochrome P450 2C9 it was 1.78 µM (inconclusive).
Turning to `c1ccn2c(c1)nc1c2nc2ccccn21`, the EC50 in assay [5] was 7.67 µM (active); in assay [6], 25.1 µM (active); with H4, > 120 µM (not active).
Consider `COC(=O)C/C=C\[C@@H](C)[C@@H](/C=N\O[C@@H](C)CN1CCCc2nc(C)c(C)cc21)OC`, for which the AC50 at Cytochrome P450 2D6 is 2.51 µM (inconclusive); at Cytochrome P450 3A4 it was 3.16 µM (inconclusive).
Turning to `Oc1nc(CN2CCN(C/C=C/c3ccccc3)CC2)nc2ccccc12`, the EC50 was > 120 µM (not active) in assay [5]; > 120 µM (not active) in assay [6]; > 120 µM (not active) in the assay on H4; 0.637 µM (active) in assay [7]; > 60 µM (not active) in assay [8].
On to `Cc1ccc(-n2nc3ccc(N)cc3n2)c(C)c1`, for which the EC50 in assay [1] is 15.2 µM (active); in assay [2], 20.3 µM (active); in [4], 16.6 µM (active).
As to `C=CCOc1c(Cl)cc(C(=S)N2CCCC2)cc1OCC`, the EC50 in assay [5] was > 120 µM (not active); in [6], > 120 µM (not active); in the assay with H4, 30.3 µM (active).
Consider `Cc1cc(C(=O)COC(=O)Cc2nnc(O)c3ccccc23)c(C)n1-c1ccc2c(c1)OCCO2`, for which the EC50 is > 120 µM (not active) in assay [5]; > 120 µM (not active) in [6]; 71.5 µM (active) with H4; 2.28 µM (active) in assay [7]; > 60 µM (not active) in [8].
Turning to `O=[N+]([O-])c1ccc(Nc2nc3ccccc3s2)cc1`, the AC50 was 3.16 µM (inconclusive) at Cytochrome P450 2D6 and 5.01 µM (inconclusive) on Cytochrome P450 3A4.
On to `CN(C)c1ncc2nc(CCc3ccccc3)c(=O)n(Cc3cccs3)c2n1`, for which, at Cytochrome P450 2D6, the AC50 was 25.1 µM (inconclusive).
For `CNCCNS(=O)(=O)c1cccc2cnccc12`, the AC50 on Cytochrome P450 2D6 was 5.01 µM (inconclusive); at Cytochrome P450 3A4, 20 µM (inconclusive).
In the case of `CC(C)Oc1ccccc1C1Nc2ccccc2C(=O)N1c1ccc2c(c1)OCCO2` (stereo unspecified), the figures for the EC50 in assay [2] and in assay [4] were > 120 µM (not active) and 9.51 µM (active), respectively.
Turning to `O=C(c1cc(C(F)(F)F)cc(C(F)(F)F)c1)N1CCC[C@@]2(CCN(Cc3nccs3)C2)C1`, at Cytochrome P450 1A2, the AC50 was 20 µM (inconclusive).
For the compound `Cc1ccc2c(c1)[C@@H]1CN(C)CC[C@@H]1N2S(=O)(=O)c1ccc(F)cc1`, the AC50 is 28.2 µM (inconclusive) on Cytochrome P450 2C19, 17.8 µM (inconclusive) on Cytochrome P450 1A2 and 0.00562 µM (inconclusive) at Cytochrome P450 2C9.
For `NNC(=O)c1[nH]c2ccccc2c1-c1ccccc1`, the EC50 in assay [1], in assay [2] and in assay [4] was > 120 µM (not active) in each case.
Turning to `Nc1nc(O)c(/N=N\c2ccccc2)c(C(=O)O)n1`, the AC50 on Cytochrome P450 1A2 is 1.26 µM (inconclusive).
As to `CCCCn1c(SCC(=O)Nc2nccs2)nc2ccccc2c1=O`, the AC50 was 0.0708 µM (inconclusive) at Cytochrome P450 2C19, 0.2 µM (inconclusive) at Cytochrome P450 1A2 and 0.398 µM (inconclusive) at Cytochrome P450 2C9.
In the case of `CO[C@H]1COC(=O)[C@H]2CCCN2C(=O)C/C=C\[C@@H](C)[C@H](OC)COC(=O)[C@@H](OCc2ccccc2)/C=C\[C@@H]1C`, the AC50 was 3.16 µM (inconclusive) at Cytochrome P450 2D6 and 3.98 µM (inconclusive) on Cytochrome P450 3A4.
Take `O[C@@H](COc1ccc(Cl)cc1Cl)CN1CCCC1`: at Cytochrome P450 1A2, the AC50 is 5.01 µM (inconclusive).
The same measure, in the same setting: the value for `CC[C@H](Oc1ccc(Cl)cc1)C(=O)OC1C[C@H]2CC[C@@H](C1)N2C` (stereo partly specified) was 31.6 µM (inconclusive).
Regarding `COCC(=O)N1CCC2(CCN(Cc3ccccc3)CC2)CC1`, the AC50 at Cytochrome P450 2D6 was 25.1 µM (inconclusive).
For the compound `CCOC(=O)N1CCN(C(=O)CN(c2ccc(OC)cc2)S(C)(=O)=O)CC1`, the EC50 is > 120 µM (not active) in assay [1], 83.4 µM (active) in assay [2] and > 120 µM (not active) in assay [4].
Regarding `Cn1c(SCc2nc(O)c3ccc(C(=O)O)cc3n2)nnc1C(F)(F)F`, the EC50 in assay [1] is > 120 µM (not active); in [2] it was 38.9 µM (active); in assay [4] it was > 120 µM (not active).
On to `COc1cccc(-c2cc(NCc3cccnc3)ncn2)c1`, for which, at Cytochrome P450 2D6, the AC50 is 25.1 µM (inconclusive).
As for `Cc1ccc2sc(N(CCCN(C)C)C(=O)CCS(=O)(=O)c3ccccc3)nc2c1C`, the EC50 is 14.3 µM (active) in assay [1]; 13.7 µM (active) in assay [2]; 11.1 µM (active) in assay [4]; 0.226 µM (active) in [7]; 4.17 µM (active) in assay [8].
As for `COc1cc2c(cc1NC(=O)CN1CCN(S(=O)(=O)c3ccccc3F)CC1)oc1ccccc12`, the EC50 (in assay [5]; in assay [6]; in the assay on H4) was > 120 µM (not active) throughout.
With `O=C(NCCN1CCN(C(=O)c2cccc(Br)c2)CC1)C(=O)Nc1ccc(Br)cc1`, the results for the EC50 in assay [1], in [2] and in [4] were 13.8 µM (active), 18.7 µM (active) and 65.2 µM (active), respectively.
As to `COc1ccc(Nc2nc(N)nc(CSc3nc(C)cc(C)n3)n2)cc1`, the EC50 in [1] is 19.8 µM (active); in [2], > 120 µM (not active); in assay [3] it was > 195 µM (not active); in assay [4], 91.3 µM (active).
`CC1Cc2nc(SCC(=O)Nc3ccc4c(c3)OCO4)n(Cc3ccccc3)c(=O)c2S1` (stereo unspecified): the EC50 was 10.8 µM (active) in [5], 5.9 µM (active) in [6] and 13.2 µM (active) in the assay with H4.
As to `CS(=O)(=O)Nc1cccc(-c2ccc3ncnc(NCc4cccnc4)c3c2)c1`, the AC50 at Cytochrome P450 2D6 is 20 µM (inconclusive).
Turning to `CC(C)[C@@H]1COC(c2cccc(C3=N[C@H](C(C)C)CO3)c2)=N1`, the EC50 in [5] is > 120 µM (not active); in assay [6], 71.1 µM (active); with H4, 10.6 µM (active).
In the case of `CC(C)(C)NC(=O)CN(Cc1cccs1)C(=O)CCC(=O)Nc1nccs1`, on Cytochrome P450 2D6, the AC50 was 28.2 µM (inconclusive).
As for `COc1ccc(C(=O)N/N=C2/SCC(=O)N2Cc2ccc3c(c2)OCO3)cc1OC`, the AC50 on Cytochrome P450 1A2 was 25.1 µM (inconclusive).
Take `CN(C)C(=O)c1ccc(-c2ccc3ncnc(NCc4ccccc4)c3c2)cc1`: the AC50 at Cytochrome P450 2D6 was 31.6 µM (inconclusive).
For `Clc1ccc2c(NCCNc3ccnc4cc(Cl)ccc34)ccnc2c1`, the AC50 on Cytochrome P450 1A2 was 5.01 µM (inconclusive).
